“Also recorded” adds a separate entry of the source.
B1: YN-011: GLP-1 fusion protein of SEQ ID NO: 7: GLP-1 (A8G, G22E, R36G), linker peptide and IgG2/Fc domain (C222S, A330S, P331S) (protein)
chain: HGEGTFTSDVSSYLEEQAAKEFIAWLVKGGGSSGAPPPSGGGGSERKSCVECPPCPAPPVAGPSVFLFPPKPKDTLMISRTPEVTCVVVDVSHEDPEVQFNWYVDGVEVHNAKTKPREEQFNSTFRVVSVLTVVHQDWLNGKEYKCKVSNKGLPSSIEKTISKTKGQPREPQVYTLPPSREEMTKNQVSLTCLVKGFYPSDIAVEWESNGQPENNYKTTPPMLDSDGSFFLYSKLTVDKSRWQQGNVFSCSVMHEALHNHYTQKSLSLSPG

What was measured:
SH-SY5Y neuronal cells [1] = test: Apoptosis in TNF-α-induced SH-SY5Y cells (cleaved-caspase 3 immunofluorescence); type: cell-based; settings: 60 ng/ml TNF-α, 48 hours; YN-011 10, 100, 500 nM; GABA 1, 10, 100 μM; combination 100 μM GABA + 100 nM YN-011
Procedure: The experimental procedure is as follows: • 1) Digest the SH-SY5Y neuronal cells in a 10 cm culture dish using 0.25% trypsin to prepare a single-cell suspension. Seed the single-cell suspension into a 24-well plate, placing a sterile coverslip in each well. • 2) Place the culture plate in a CO2 incubator and pre-culture overnight at 37° C. with 5% CO2 to allow the cells to adhere. • 3) Using medium containing 5% FBS, treat the cells in each well with 60 ng/ml TNF-α alone or co-treated with 10, 100, or 500 nM YN-011 at 37° C. for 48 hours. […]

SH-SY5Y neuronal cells [2] = test: Apoptosis in TNF-α-induced SH-SY5Y cells (Annexin V-FITC/PI flow cytometry); type: cell-based; settings: 60 ng/ml TNF-α, 48 hours; YN-011 10, 100, 500 nM; GABA 1, 10, 100 μM; combination 100 μM GABA + 100 nM YN-011
Procedure: Digest the SH-SY5Y neuronal cells in a 10 cm culture dish using 0.25% trypsin to prepare a single-cell suspension. Seed the single-cell suspension into a 12-well plate. Place the culture plate in a CO2 incubator and pre-culture overnight at 37° C. with 5% CO2 to allow the cells to adhere. Using medium containing 5% FBS, treat the cells in each well with 60 ng/ml TNF-α alone or co-treated with 10, 100, or 500 nM YN-011 at 37° C. for 48 hours. Each drug treatment is performed in three replicate wells. Collect the cells and digest the cells with 0.25% trypsin without EDTA for 1 minute. Transfer the cell suspension to a 1.5 ml EP tube, centrifuge at 1000 rpm for 5 minutes, and pellet the cells at the bottom of the tube. Resuspend […] in 100 μl Binding Buffer, add 5 μl of PI and 5 μl of Annexin V-FITC solution, and incubate at room temperature in the dark for 15 minutes. Add 400 μl of Binding Buffer to each tube, and detect using a flow cytometer (Annexin V-FITC excitation wavelength: 488 nm, emission wavelength:
520 nm; PI excitation wavelength: 535 nm, emission wavelength: 617 nm). Count the number of Annexin V-FITC positive cells and PI negative cells in each sample.
Please refer to section 8.14 for the experimental procedure, but the drug treatment in this experiment is different from that in section 8.14. […]

| Molecule | apoptosis in TNF-α-induced neuronal cells (cleaved-caspase 3 positive cells) (SH-SY5Y neuronal cells [1]) | apoptosis in TNF-α-induced neuronal cells (Annexin V-FITC positive, PI negative cells) (SH-SY5Y neuronal cells [2]) |
| --- | --- | --- |
| NCCCC(=O)O [GABA, γ-aminobutyric acid] | reduces apoptosis; also recorded: reduction of apoptosis | reduces apoptosis; also recorded: reduction of apoptosis |
| B1 | significantly reduces apoptosis; also recorded: reduction of apoptosis | significantly reduces apoptosis; also recorded: reduction of apoptosis |
